Test: Hydroxyapatite Assay (hydroxyapatite adsorption chromatography)
Format: physicochemical
Conditions: corrected retention K=(retention time-void time)/void on TSK-Gel HA 1000 HPLC column; linear gradient 10 mM to 500 mM sodium phosphate, 0.15 N NaCl, pH 6.8
Text: Hydroxyapatite is the principal mineral component of bone. Hydroxyapatite adsorption chromatography is used as an assay to evaluate the bone-targeting potential of both individual bone-targeting moieties (“monomers”) and of pharmaceuticals incorporating bone-targeting groups.
The rentention time of the compound is expressed in terms of K=(retention time-void time)/void. This K value is corrected using two reference compounds to correct from inter-column and inter-system variation to obtain a K′ value.
Reference Compounds: K′ values were determined for known bone targeted compounds, the bisphosphonate, alendronate and tetracycline.

K′ value: 3.7
Compound: NCCCC(O)(P(=O)(O)O)P(=O)(O)O [Alendronate, alendronate]
